According to patent US4654326A, “Inhibition of plant viruses with oligonucleotides” (priority 1984, dated 1987):
Entries after “also recorded” stand apart in the source; their conditions may differ. Like-named read-outs stand apart in the source and are kept apart here.

Experiments:
N. glutinosa = type: in vivo; details: non-infected plants, 1×10^-6 M, two week period
Experimental: Effect of 2',5'-adenylate trimer core and its analogs on TMV replication in intact plants. […] The cores inhibited the formation of local lesions following TMV infection by 89-99% (Table 3). […] Non-infected plants were treated with 1×10^-6 M 2',5'adenylate trimer core, 2',5'-cordycepin trimer core, 2',5'-A-A-ara-A, and 2',5'-A-A-Tu (data not shown).

TMV [1] = experiment: Inhibition of TMV replication in intact N. glutinosa leaves (local lesion infectivity test); type: in vivo, tobacco mosaic virus; details: for Inhibition of TMV replication in N. glutinosa leaves: 1 × 10^-6 M in the infecting solution, 48 hours after infection (Table 3); for inhibition at 1 µM: Tobacco mosaic virus, 48 h, read-out: Inhibition of TMV replication in N. glutinosa leaves
TMV [2] = experiment: Inhibition of TMV replication in tobacco protoplasts (homogenates assayed for local lesions); type: cell-based, tobacco mosaic virus; details: for inhibition at 0.1 µM: Tobacco mosaic virus, 1 × 10^-7 M, added within 3 hours of infection, average of four experiments
Experimental: (§1) Plant material treatment and measurement of infectivity. Partially purified AVF was prepared. The growth of N. glutinosa, N. tabacum Var. "Samsun", N. tabacum cv. Samsun NN, and preparation and inoculation of protoplasts were as described. To evaluate the effect of 2',5'-cores, nucleotides and nucleosides on TMV replication, various concentrations were added to 10 ml of protoplast suspension (1×10^5 cells/ml) at various times after inoculation with TMV. Protoplasts were incubated at 25° C. under continuous illumination of about 1500 Lx. At various times protoplasts were collected by centrifugation and homogenized. The homogenate was inoculated onto 12 half-leaves of N. glutinosa plants and compared to a standard solution of purified TMV on the opposite half-leaves. Lesion counts were adjusted to 10^6 live protoplasts and calibrated. Control protoplasts (no Nucleotides added) were assayed simultaneously. The assays for antiviral activity on TMV-infected tobacco leaf discs were done by enzyme-linked immunosorbent assay. The ability of the 2',5'-cores, nucleosides, and nucleotides to inhibit TMV replication in the intact plant was determined by infectivity tests as follows. Solutions containing 5 μg/ml TMV, 0.1 g carborundum (100 Tyler mesh), and 2',5'-cores, nucleosides, or nucleotides were applied onto 12 half-leaves of N. glutinosa. The remaining half-leaves were controls (inoculated with a solution containing no nucleotides). The infection was allowed to proceed 48 hours under continuous illumination.
the TMVinfected protoplasts within 3 hours of infection.
^b Average of four experiments.
by the 2',5cores, nucleosides and nucleotides was calculated as the
percent of local leasions produced in N. glutinosa treated by homogenates
of protoplasts compared to nontreated protoplasts.

TMV [3] = experiment: TMV replication in TMV-infected tobacco leaf discs (ELISA); type: cell-based, tobacco mosaic virus; details: up to 2×10^-7 M (FIG. 1)
Experimental: as §1, with “Solutions containing 5 μg/ml TMV, 0.1 g carborundum (100 Tyler mesh), and 2',5'-cores, nucleosides, or nucleotides were applied onto 12 half-leaves of N. glutinosa. The remaining half-leaves were controls (inoculated with a solution containing no nucleotides). The infection was allowed to proceed 48 hours under continuous illumination.” left out
TMV-infected tobacco leaf discs, treatment and TMV determination. […] Discs were removed at various times after TMV inoculation and their TMV content was determined. […]

[4] = 1×10^-6 M in the TMV-infecting solution
[5] = read-out: Inhibition of TMV replication after 48 hr
[6] = read-out: Inhibition of TMV replication after 72 hr
[7] = read-out: Inhibition of TMV replication after 24 hr

| Compound | inhibition at 1 µM (TMV [1]) | Inhibition of TMV replication in protoplasts (in words) (TMV [2]) | inhibition at 0.1 µM (TMV [2]; [5]) | also measured |
| --- | --- | --- | --- | --- |
| adenylyl-(2' 5')-adenylyl-(2' 5)-tubercidin [2',5'-A-A-Tu] | – | – | – | Toxicity (chlorosis or necrosis) (N. glutinosa): No toxicity (chlorosis or necrosis) was observed; Inhibition of TMV replication in N. glutinosa (in words) (TMV [1]; [4]): potent inhibitors of TMV replication; Inhibition of TMV replication in N. glutinosa leaves (TMV [1]): 95%; Inhibition of TMV replication in N. glutinosa (in words) (TMV [1]; no single concentration stated): also inhibited TMV replication |
| Nc1ncnc2c1ncn2[C@@H]1O[C@H](CO)C[C@H]1O [Cordycepin, cordycepin] | 0% | less inhibitory | 21% | inhibition at 0.1 µM (TMV [2]; [6]): 32% |
| Nc1ncnc2c1ncn2[C@@H]1O[C@H](COP(=O)(O)O)[C@@H](O)[C@H]1O [AMP] | 10% | less inhibitory; also recorded: some inhibition of TMV replication | 33% | Inhibition of TMV replication in tobacco leaf discs (in words) (TMV [3]): no inhibition of TMV replication; inhibition at 0.1 µM (TMV [2]; [7]): 22% |
| Nc1ncnc2c1ncn2[C@@H]1O[C@H](COP(=O)(O)O)C[C@H]1O [Cordycepin monophosphate, Cordycepin 5'-monophosphate] | 0% | – | – | – |
| Nc1ncnc2c1ccn2[C@@H]1O[C@H](CO)[C@@H](O)[C@H]1O [Tubercidin, tubercidin] | 0% | – | – | – |
| Nc1ncnc2c1ncn2[C@@H]1O[C@H](CO)[C@@H](O)[C@@H]1O [Ara-a] | 0% | – | – | – |
| Nc1ncnc2c1ncn2[C@@H]1O[C@H](COP(=O)(O)O)[C@@H](O)[C@@H]1O [Ara-AMP] | 0% | – | – | – |
| OC[C@H]1O[C@@H](n2cnc3c(O)ncnc32)[C@H](O)[C@@H]1O [Inosine, inosine] | 0% | less inhibitory | 22% | inhibition at 0.1 µM (TMV [2]; [6]): 25% |
| Nc1ncnc2c1ccn2[C@@H]1O[C@H](COP(=O)(O)O)[C@@H](O)[C@H]1O [TuMP, tubercidin 5'-monophosphate] | 0% | – | – | – |
| adenylyl-(2' 5')-adenylyl-(2' 5')-9-β-D-arabinofuranosyladenine [2',5'-A-A-ara-A] | – | – | – | Toxicity (chlorosis or necrosis) (N. glutinosa): No toxicity (chlorosis or necrosis) was observed; Inhibition of TMV replication in N. glutinosa (in words) (TMV [1]; [4]): potent inhibitors of TMV replication; Inhibition of TMV replication in N. glutinosa leaves (TMV [1]): 94%; Inhibition of TMV replication in N. glutinosa (in words) (TMV [1]; no single concentration stated): inhibition of TMV replication; Inhibition of TMV replication in N. glutinosa (in words) (TMV [1]; no single concentration stated, listed as A-A-ara-A): also inhibited TMV replication |
| Nc1ncnc2c1ncn2[C@@H]1O[C@H](CO)[C@@H](O)[C@H]1O [Adenosine, adenosine] | 0% | less inhibitory | 0% | Inhibition of TMV replication in tobacco leaf discs (in words) (TMV [3]): no inhibition of TMV replication; inhibition at 0.1 µM (TMV [2]; [7]): 14%; Inhibition of TMV replication in protoplasts (in words) (TMV [2]; listed as adenosine): some inhibition of TMV replication |
